According to PMC12799524, “Putative new biomarkers for renal transporter-mediated drug-drug interactions: Characterization as substrates of organic cation transporter 2, multidrug and toxin extrusion protein 1, and other important drug transporters” (Drug Metabolism and Disposition, 2025):
Blank lines part the entries; values can stand above or below the molecule they belong to.

Legend:
[1] = biological target: T1, MATE1 (Homo sapiens, UniProt Q96FL8); assay: Uptake assay in HEK-MATE1 vs HEK-VC cells (pH 8.0); settings: 0 minutes and 5 minutes without added substance
T1 sequence (Q96FL8 1-570): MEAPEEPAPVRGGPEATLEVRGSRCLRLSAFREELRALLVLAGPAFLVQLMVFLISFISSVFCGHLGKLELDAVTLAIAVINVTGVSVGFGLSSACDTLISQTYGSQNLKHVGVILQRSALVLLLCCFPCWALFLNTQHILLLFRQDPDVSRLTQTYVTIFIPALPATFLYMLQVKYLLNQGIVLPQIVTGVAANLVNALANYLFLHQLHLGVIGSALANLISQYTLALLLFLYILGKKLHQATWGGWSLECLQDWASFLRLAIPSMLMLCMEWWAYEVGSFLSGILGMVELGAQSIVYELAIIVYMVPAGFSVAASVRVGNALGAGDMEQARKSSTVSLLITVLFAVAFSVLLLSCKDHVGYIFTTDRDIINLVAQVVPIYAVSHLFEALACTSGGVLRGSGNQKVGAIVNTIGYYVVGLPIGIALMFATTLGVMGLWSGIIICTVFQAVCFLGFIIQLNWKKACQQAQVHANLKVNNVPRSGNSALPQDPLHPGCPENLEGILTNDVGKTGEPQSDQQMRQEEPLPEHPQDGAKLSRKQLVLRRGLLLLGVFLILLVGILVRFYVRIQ
Method: (§1) Transport experiments were performed 48 hours after seeding.
(§2) The intracellular background of all 5 compounds in HEK cells at the beginning of the uptake experiments was investigated 48 hours after seeding without incubation with transport buffer (ie, 0 minutes). […] Then, cells were lysed with ice-cold 80% MeOH containing the aforementioned recovery standards. In addition, the impact of a 5-minute incubation period with transport buffer without added substance was investigated.

[2] = biological target: T2, human OCT2 (Homo sapiens, UniProt O15244); assay: Uptake assay in HEK-OCT2 vs HEK-VC cells; format: in vitro ADME; set-up: expressed in transfected cells; host or cells: HEK293 (HEK-OCT2)
T2 sequence (O15244 1-555): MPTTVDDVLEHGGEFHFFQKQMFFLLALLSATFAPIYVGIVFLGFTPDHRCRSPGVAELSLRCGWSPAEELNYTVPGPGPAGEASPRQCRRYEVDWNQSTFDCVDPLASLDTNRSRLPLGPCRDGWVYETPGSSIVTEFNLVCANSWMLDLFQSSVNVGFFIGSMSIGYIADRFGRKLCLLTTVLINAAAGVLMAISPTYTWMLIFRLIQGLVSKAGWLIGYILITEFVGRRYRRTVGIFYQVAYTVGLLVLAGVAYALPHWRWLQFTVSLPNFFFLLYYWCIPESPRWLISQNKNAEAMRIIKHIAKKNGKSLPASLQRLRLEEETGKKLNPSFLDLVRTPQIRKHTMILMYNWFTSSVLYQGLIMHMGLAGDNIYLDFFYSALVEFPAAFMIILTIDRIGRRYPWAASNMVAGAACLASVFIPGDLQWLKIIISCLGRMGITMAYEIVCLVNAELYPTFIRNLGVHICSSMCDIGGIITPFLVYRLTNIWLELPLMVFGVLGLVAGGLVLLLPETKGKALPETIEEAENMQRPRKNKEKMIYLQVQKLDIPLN
Method: as §1, §2

[3] = substrate: NCCc1c[nH]c2ccc(O)cc12

- Intracellular background in HEK-MATE1 cells compared to HEK-VC cells [1]: significantly lower
- Intracellular background in HEK-OCT2 cells compared to HEK-VC cells ([2]; 0 minutes, without added substance): significantly higher
- Intracellular background in HEK-OCT2 cells compared to HEK-VC cells ([2]; 5 minutes in transport buffer without added substance): reduced to the amount in HEK-VC cells
Molecule: N=C(N)NCCCC(=O)O [4-Guanidinobutanoic acid, 4-guanidinobutanoic acid]

B1: human OCT2 (Homo sapiens) (protein)
chain: T2 sequence (O15244 1-555)
- Km [3]: 412.0 ± 143.6 µM
